According to PMC6352943, “Novel pyrazolo[3,4-d]pyrimidines: design, synthesis, anticancer activity, dual EGFR/ErbB2 receptor tyrosine kinases inhibitory activity, effects on cell cycle profile and caspase-3-mediated apoptosis” (Journal of Enzyme Inhibition and Medicinal Chemistry, 2019):
“And” between values parts separate entries of the source, which are not always exact repeats. Equal values may be shown once.

Columns and labels:
OVCAR-4 cells = test: Annexin V-FITC/PI apoptosis assay; type: cell-based, human
Description: Annexin V fluorescein isothiocyanate (FITC)/PI apoptosis detection kit (BD Biosciences) was used according to the manufacturer’s instructions to measure the apoptotic activity of compound 7d. OVCAR-4 cells were incubated with Annexin V-FITC. […] The cells then were collected by trypsinisation and 0.5 × 10^6 cells were washed twice with PBS and stained with 5 μL Annexin V-FITC and 5 μL PI in 1 × binding buffer for 15 min at room temperature in the dark. Analyses were performed using FACS Calibur flow cytometer (BD Biosciences, San Jose, CA).
The apoptotic activity of compound 7d was further studied using Annexin V-FITC assay, which includes dual staining using Annexin V, a Ca^2+-dependent protein, and Propidium iodide (PI). Annexin V binds to phosphatidylserine (PS) expressed only on the surface of the apoptotic cells and fluoresces green after interacting with the fluorochrome labelled annexin-V. On the other hand, PI stains DNA and enters only dead cells. This assay can give a differential analysis to the percentages of living, early apoptotic, late apoptotic and necrotic cells. […] Moreover, a significant increase in the percentage of Annexin-V positive cells (almost 9 folds more than control) occurred indicating an early apoptosis (lower right quadrant). In addition, an increase by 7 folds more than control in the percentage of PI positive cells (upper left quadrant) indicating necrotic cells. Some treated cells were in a late apoptotic stage (upper right quadrant), this was indicated by the significant increase in the percentage of Annexin V positive, PI positive cells (16 folds more than control).

ErbB2 = target: T1, ErbB2 (Homo sapiens, UniProt P04626); test: ErbB2 kinase inhibition (HTScan HER2/ErbB2 Kinase Assay Kit); type: biochemical; conditions: mean ± SD of three experiments; read-out: IC50 for inhibitory activity against ErbB2 enzyme
T1 construct: purchased
T1 sequence (P04626 23-1255): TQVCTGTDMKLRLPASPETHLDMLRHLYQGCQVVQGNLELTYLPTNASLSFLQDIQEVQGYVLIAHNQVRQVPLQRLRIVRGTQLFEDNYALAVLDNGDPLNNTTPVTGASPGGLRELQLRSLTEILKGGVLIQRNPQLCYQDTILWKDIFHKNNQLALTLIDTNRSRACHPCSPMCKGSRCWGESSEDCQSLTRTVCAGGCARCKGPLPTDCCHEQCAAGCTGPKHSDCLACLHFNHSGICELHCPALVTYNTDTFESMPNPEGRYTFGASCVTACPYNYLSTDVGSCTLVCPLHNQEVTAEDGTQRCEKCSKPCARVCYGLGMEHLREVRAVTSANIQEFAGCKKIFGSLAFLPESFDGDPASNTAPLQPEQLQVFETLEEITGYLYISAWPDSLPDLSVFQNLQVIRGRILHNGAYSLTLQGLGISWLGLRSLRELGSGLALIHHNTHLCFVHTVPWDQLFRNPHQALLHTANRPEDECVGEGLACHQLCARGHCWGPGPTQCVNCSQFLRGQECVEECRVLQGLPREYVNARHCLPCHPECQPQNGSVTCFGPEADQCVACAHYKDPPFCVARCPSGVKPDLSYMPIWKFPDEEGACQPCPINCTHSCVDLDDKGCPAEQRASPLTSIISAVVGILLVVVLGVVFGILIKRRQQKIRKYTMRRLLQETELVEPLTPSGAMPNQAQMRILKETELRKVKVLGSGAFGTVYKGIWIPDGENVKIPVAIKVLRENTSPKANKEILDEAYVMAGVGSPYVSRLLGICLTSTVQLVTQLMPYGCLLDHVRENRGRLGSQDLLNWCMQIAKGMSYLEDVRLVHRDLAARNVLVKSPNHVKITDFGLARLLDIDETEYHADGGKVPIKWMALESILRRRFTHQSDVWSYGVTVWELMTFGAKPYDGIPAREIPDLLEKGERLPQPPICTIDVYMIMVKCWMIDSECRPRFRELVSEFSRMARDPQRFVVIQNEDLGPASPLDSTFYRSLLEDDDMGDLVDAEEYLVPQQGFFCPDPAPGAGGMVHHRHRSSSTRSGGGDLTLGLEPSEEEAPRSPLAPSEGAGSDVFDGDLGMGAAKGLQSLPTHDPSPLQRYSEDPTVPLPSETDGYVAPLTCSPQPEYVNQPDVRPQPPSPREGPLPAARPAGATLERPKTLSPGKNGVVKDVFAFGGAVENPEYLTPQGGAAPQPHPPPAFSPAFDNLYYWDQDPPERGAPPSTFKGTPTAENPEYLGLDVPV
Description: In brief, add 10 μL of 10 mM ATP to 1.25 ml of 6 μM substrate peptide. Dilute the mixture with dH20 to 2.5 ml. Transfer enzyme from −80 °C to ice. Allow enzyme to thaw on ice. Micro-centrifuge briefly at 4 °C. Return immediately to ice. […] Transfer 1.2 ml of DTT/Kinase buffer to each enzyme. […] Add 25 μL of ATP/substrate cocktail to 25 μL/well pre-incubated reaction cocktail/compound. Incubate reaction plate at room temperature for 30 min. Add 50 μL/well stop buffer to stop the reaction. Transfer 25 μL of each reaction and 75 μL dH2O/well to a 96-well streptavidin coated, plate and incubate at room temperature for 60 min. Wash three times with 200 μL/well phosphate-buffered saline (PBS). […] Add 100 μL/well primary antibody. Incubate at room temperature for 60 min and wash three times. Prepare appropriate dilution of horseradish peroxidase (HRP) labelled secondary antibody in PBS with 1% BSA. Add 100 μL/well secondary antibody solution. Incubate at room temperature for 30 min and wash five times. Add 100 μL/well 3,3′,5,5′-tetramethylbenzidine (TMB) substrate. Incubate at room temperature for 15 min. Add 100 μL/well of stop solution. Mix well and read the absorbance at 450 nm with a microtitre plate reader.

OVCAR-4 = test: MTT cell viability assay; type: cell-based, human
Description: (§1) Cell Line cells were obtained from American Type Culture Collection, cells were cultured using Dulbecco's Modified Eagle's medium (DMEM) (Invitrogen/Life Technologies) supplemented with 10% foetal bovine serum (FBS) (Hyclone), 10 μg/mL of insulin (Sigma), and 1% penicillin-streptomycin. All of the other chemicals and reagents were from Sigma, or Invitrogen. Plate cells (cells density 1.2 – 1.8 × 10,000 cells/well) in a volume of 100 µL complete growth medium and 100 μL of the tested compound per well in a 96-well plate for 24 h before the MTT assay.
(§2) Remove culture medium to a centrifuge tube. […] Add 2.0 to 3.0 ml of Trypsin EDTA solution to flask and observe cells under an inverted microscope until cell layer is dispersed. Add 6 to 8 ml of complete growth medium and aspirate cells by gently pipetting. Transfer the cell suspension to the centrifuge tube with the medium and centrifuge for 5 to 10 min. Discard the supernatant. Resuspend the cell pellet in fresh growth medium. Add appropriate aliquots of the cell suspension to new culture vessels. Incubate cultures at 37 °C for 24 h. After treatment of cells with the serial concentrations of the compound to be tested incubation is carried out for 48 h at 37 °C, then the plates are to be examined under the inverted microscope and proceed for the MTT assay.
(§3) The 3–(4, 5-dimethylthiazol-2-yl)-2,5-diphenyltetrazolium bromide (MTT) method[30] of monitoring in vitro cytotoxicity is well suited for use with multiwell plates. The assessment of cell population growth is based on the capability of living cells to reduce the yellow product MTT to a blue product, formazan, by a reduction reaction occurring in the mitochondria. The five cell lines were incubated for 24 h in 96-microwell plates. The number of living cells in the presence or absence (control) of the various test compounds is directly proportional to the intensity of the blue colour, measured by spectrophotometry using (ROBONIK P2000 Spectrophotometer) at a wavelength of 570 nm. Measure the background absorbance of multiwell plates at 690 nm and subtract from the 570 nm measurement. Five concentrations ranging from 0.01 μM to 100 μM (with semi-log decrease in concentration) were tested for each of the compounds under study. Each experiment was carried out in triplicate. The IC50 values [the concentration required for 50% inhibition of cell viability] were calculated using sigmoidal dose response curve-fitting models.

NCI-H460 = test: MTT cell viability assay; type: cell-based, human
Description: as §1, §2, §3

ACHN = test: MTT cell viability assay; type: cell-based, human
Description: as §1, §2, §3

## Cc1nn(-c2ccc(F)cc2)c2ncnc(Nc3ccc(F)c(Cl)c3)c12 [Compound 7d, N-(3-Chloro-4-fluorophenyl)-1–(4-fluorophenyl)-3-methyl-1H-pyrazolo[3,4-d] pyrimidin-4-amine]
OVCAR-4 cells; OVCAR-4, 7d at IC50 (1.74 μM), 24 h, lower right quadrant
  %Apoptosis Early: 7.52%
OVCAR-4 cells; OVCAR-4, 7d at IC50 (1.74 μM), 24 h, upper left quadrant
  %Necrosis: 2.88%
OVCAR-4 cells; OVCAR-4, 7d at IC50 (1.74 μM), 24 h, upper right quadrant
  %Apoptosis Late: 11.31%
OVCAR-4 cells; OVCAR-4, at IC50, 24 h
  Increase in percentage of Annexin V positive, PI positive cells (late apoptosis) versus control: 16 folds
  Increase in percentage of Annexin-V positive cells (early apoptosis) versus control: ~9 folds
  Increase in percentage of PI positive cells (necrotic cells) versus control: 7 folds
ErbB2
  IC50: 250 nM and 254 nM
OVCAR-4; Homo sapiens, OVCAR-4 ovarian cancer, MTT, 48 h, mean ± SD of three experiments, read-out: IC50 (concentration required for 50% inhibition of cell viability)
  IC50: 1740 ± 60 nM
OVCAR-4; OVCAR-4, from IC50 values
  Potency relative to Erlotinib (fold more potent): 1.6 fold
NCI-H460; Homo sapiens, NCI-H460 lung cancer, MTT, 48 h, mean ± SD of three experiments, read-out: IC50 (concentration required for 50% inhibition of cell viability)
  IC50: 4440 ± 260 nM
NCI-H460; NCI-H460, from IC50 values
  Potency relative to Erlotinib (fold more potent): 1.9 fold
ACHN; ACHN, from IC50 values
  Potency relative to Erlotinib (fold more potent): 2.2 fold
ACHN; Homo sapiens, ACHN renal cancer, MTT, 48 h, mean ± SD of three experiments, read-out: IC50 (concentration required for 50% inhibition of cell viability)
  IC50: 5530 ± 310 nM
